Results on 17 compounds are retold here after PubChem BioAssay AID248 (DTP/NCI, 2004).

“And” between values parts separate entries of the source, which are not always exact repeats. Equal entries are not always repeated. Toxic doses and inconclusive results are not listed.

The test system of this assay is L1210 leukemia ip in BDF1 mice, survival T/C. Briefly: NCI In Vivo Anticancer Drug Screen. Data for tumor model L1210 Leukemia (intraperitoneal) in B6D2F1 (BDF1) mice. Particulars: endpoint: mean survival time, higher = longer survival. Summed up: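 Read-out is survival time, reported as the treated-group measurement over the vehicle-control measurement.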
Setting [1] is: dose: 100.0 mg/kg/injection, schedule: Q01DX001 (ip), vehicle: saline.
[2] abbreviates: dose: 100.0 mg/kg/injection, schedule: Q01DX009 (ip), vehicle: saline with Tween-80.
The mark [3] stands for this setting: dose: 200.0 mg/kg/injection, schedule: Q01DX009 (ip), vehicle: saline with Tween-80.
[4] abbreviates: dose: 400.0 mg/kg/injection, schedule: Q01DX001 (ip), vehicle: saline.
Where [5] appears, read: dose: 100.0 mg/kg/injection, schedule: Q04DX002 (ip), vehicle: Klucel (hydroxypropylcellulose) (HPC).
[6] abbreviates: dose: 200.0 mg/kg/injection, schedule: Q04DX002 (ip), vehicle: Klucel (hydroxypropylcellulose) (HPC).
[7] abbreviates: dose: 400.0 mg/kg/injection, schedule: Q04DX002 (ip), vehicle: Klucel (hydroxypropylcellulose) (HPC).
The mark [8] stands for this setting: dose: 200.0 mg/kg/injection, schedule: Q01DX001 (ip), vehicle: saline.
[9] abbreviates: dose: 50.0 mg/kg/injection, schedule: Q01DX009 (ip), vehicle: saline with Tween-80.
The mark [10] stands for this setting: dose: 100.0 mg/kg/injection, schedule: Q01DX009 (ip), vehicle: saline.
Setting [11] is: dose: 200.0 mg/kg/injection, schedule: Q01DX009 (ip), vehicle: saline.
Where [12] appears, read: dose: 400.0 mg/kg/injection, schedule: Q01DX009 (ip), vehicle: saline.

`CCN=C(NCC)c1ccc(NC(=O)c2ccc(C(=O)Nc3ccc(C(=NCC)NCC)cc3)cc2)cc1`: the T/C was 98 % of control (dose: 7.5 mg/kg/injection, schedule: Q01DX010 (oral), vehicle: saline); 204 % of control (dose: 7.5 mg/kg/injection, schedule: Q01DX Z (ip), vehicle: saline); 95 % of control (dose: 15.0 mg/kg/injection, schedule: Q01DX010 (oral), vehicle: saline); 106 % of control and 109 % of control (dose: 15.0 mg/kg/injection, schedule: Q01DX Z (ip), vehicle: saline); 91 % of control (dose: 30.0 mg/kg/injection, schedule: Q01DX010 (oral), vehicle: saline); 98 % of control (dose: 125.0 mg/kg/injection, schedule: Q01DX Z (oral), vehicle: saline). The T/C runs as follows: (dose: 125.0 mg/kg/injection, schedule: Q## X010 (oral), vehicle: saline) 108 % of control; (dose: 250.0 mg/kg/injection, schedule: Q01DX Z (oral), vehicle: saline) 96 % of control; (dose: 250.0 mg/kg/injection, schedule: Q## X010 (oral), vehicle: saline) 123 % of control; (dose: 500.0 mg/kg/injection, schedule: Q01DX Z (oral), vehicle: saline) 109 % of control.

In the case of `CS(=O)(=O)OCCN(CCOS(C)(=O)=O)c1ccc(/C=N/Nc2ccc([N+](=O)[O-])cc2[N+](=O)[O-])cc1`, the T/C is 92 % of control under setting [1]; 96 % of control under setting [2]; 91 % of control (dose: 100.0 mg/kg/injection, schedule: Q04DX003 (ip), vehicle: saline); 91 % of control under setting [3]; 90 % of control (dose: 200.0 mg/kg/injection, schedule: Q04DX003 (ip), vehicle: saline); 89 % of control under setting [4]. Also, the T/C was 93 % of control (dose: 400.0 mg/kg/injection, schedule: Q01DX009 (ip), vehicle: saline with Tween-80) and 87 % of control (dose: 400.0 mg/kg/injection, schedule: Q04DX003 (ip), vehicle: saline).

Turning to `O=C(c1ccccc1)C1(c2ccccc2)OP(c2ccccc2)(c2ccccc2)(c2ccccc2)CC1c1ccccc1` (centres undefined), the T/C is 90 % of control (dose: 12.5 mg/kg/injection, schedule: Q04DX003 (ip), vehicle: saline with Tween-80) and 92 % of control (dose: 25.0 mg/kg/injection, schedule: Q04DX003 (ip), vehicle: saline with Tween-80).

With `Cc1nnn2ccccc12`, the T/C is 96 % of control (dose: 25.0 mg/kg/injection, schedule: Q01DX001 (ip), vehicle: saline); 100 % of control (dose: 50.0 mg/kg/injection, schedule: Q01DX001 (ip), vehicle: saline); 100 % of control under setting [1].

Regarding `CCOC(=O)C1CN(CCc2ccccc2)CCC1=O` (centres undefined), the T/C runs as follows: (dose: 75.0 mg/kg/injection, schedule: Q01DX001 (ip), vehicle: saline) 101 % of control; (dose: 75.0 mg/kg/injection, schedule: Q04DX003 (ip), vehicle: saline) 100 % of control; (dose: 150.0 mg/kg/injection, schedule: Q01DX001 (ip), vehicle: saline) 95 % of control; (dose: 150.0 mg/kg/injection, schedule: Q04DX003 (ip), vehicle: saline) 100 % of control; (dose: 300.0 mg/kg/injection, schedule: Q01DX001 (ip), vehicle: saline) 91 % of control; (dose: 300.0 mg/kg/injection, schedule: Q04DX003 (ip), vehicle: saline) 108 % of control.

As for `Cc1cc(=O)n(-c2ccccc2)cn1`, the T/C (dose: 100.0 mg/kg/injection, schedule: Q04DX003 (ip), vehicle: Klucel (hydroxypropylcellulose) (HPC)) was 98 % of control; the T/C (dose: 200.0 mg/kg/injection, schedule: Q04DX003 (ip), vehicle: Klucel (hydroxypropylcellulose) (HPC)) is 89 % of control; the T/C (dose: 400.0 mg/kg/injection, schedule: Q04DX003 (ip), vehicle: Klucel (hydroxypropylcellulose) (HPC)) is 96 % of control.

On to `O=Nc1ccc(O)cc1I`, for which the T/C under setting [5] was 100 % of control, the T/C under setting [6] was 97 % of control and the T/C under setting [7] is 93 % of control.

Turning to `COc1ccc2c(c1C)CCC1(C(=O)O)CC(C)C(O)CC21` (centres undefined), the T/C reads like this: (dose: 100.0 mg/kg/injection, schedule: Q01DX009 (ip), vehicle: saline sonified) 98 % of control; (dose: 200.0 mg/kg/injection, schedule: Q01DX009 (ip), vehicle: saline sonified) 96 % of control; (dose: 400.0 mg/kg/injection, schedule: Q01DX009 (ip), vehicle: saline sonified) 96 % of control.

As for `O=S1(=O)c2ccccc2C(=NO)c2ccccc21`, the T/C runs as follows: (dose: 75.0 mg/kg/injection, schedule: Q01DX009 (ip), vehicle: other) 98 % of control; under setting [1], 97 % of control; (dose: 150.0 mg/kg/injection, schedule: Q01DX009 (ip), vehicle: other) 98 % of control; under setting [8], 94 % of control; (dose: 300.0 mg/kg/injection, schedule: Q01DX009 (ip), vehicle: other) 93 % of control; under setting [4], 97 % of control.

Take `COC1=NS(=O)(=O)C(C)C(C)(C)O1` (centres undefined): the T/C is, setting by setting: under setting [5], 100 % of control; under setting [6], 120 % of control; under setting [7], 100 % of control.

In the case of `CCCCCCCCCCCCCCCCCC(=O)OCC(O)COC(C)=O` (centres undefined), the T/C is 98 % of control (dose: 12.5 mg/kg/injection, schedule: Q01DX009 (ip), vehicle: saline with Tween-80); 95 % of control (dose: 25.0 mg/kg/injection, schedule: Q01DX009 (ip), vehicle: saline with Tween-80); 95 % of control under setting [9]; 91 % of control under setting [2]; 91 % of control under setting [3].

As for `O=C1C=C(NC(Cc2cnc[nH]2)C(=O)O)c2ccccc2C1=O` (centres undefined), the T/C was 97 % of control under setting [9], 100 % of control under setting [2] and 93 % of control under setting [3].

`CSc1ccc(OC(=O)Oc2ccc(SC)cc2)cc1`: the T/C runs as follows: (dose: 100.0 mg/kg/injection, schedule: Q01DX001 (ip), vehicle: carboxymethylcellulose (CMC)) 97 % of control; (dose: 200.0 mg/kg/injection, schedule: Q01DX001 (ip), vehicle: carboxymethylcellulose (CMC)) 95 % of control; (dose: 400.0 mg/kg/injection, schedule: Q01DX001 (ip), vehicle: carboxymethylcellulose (CMC)) 92 % of control.

For the compound `O=CC(O)C(O)C(O)C(O)CO` (centres undefined), the T/C is 98 % of control under setting [10]; 96 % of control under setting [11]; 107 % of control under setting [12]; 98 % of control (dose: 800.0 mg/kg/injection, schedule: Q01DX009 (ip), vehicle: saline).

In the case of `Cc1c(C[N+](C)(C)C)c(=O)n(-c2ccccc2)n1C`, the T/C was 104 % of control under setting [1], 98 % of control under setting [8] and 98 % of control under setting [4].

In the case of `O=C(O)/C=C\C(=O)Nc1ccccc1NC(=O)/C=C/C(=O)O`, the T/C is 96 % of control under setting [10], 94 % of control under setting [11] and 91 % of control under setting [12].

As to `CC1CCN1c1ccccc1` (centres undefined), the T/C (dose: 100.0 mg/kg/injection, schedule: Q04DX003 (ip), vehicle: acetone) was 88 % of control.
